Measurements: US8703711B2, “Ninjurin-1 modulation and uses thereof” (Val-Chum, Limited Partnership, priority 2009, dated 2014)

Key:
EAE mice = test: Experimental autoimmune encephalomyelitis (EAE) induced with MOG35-55/CFA; type: in vivo, C57BL/6 mice
Protocol: Flow Cytometric analysis of Ninjurin-1 expression. Cells were harvested and resuspended in FACS buffer composed of PBS supplemented with 1% FBS (Biosource-Invitrogen) and 0.1% NaN3 (Sigma). The cells were incubated with HS (Biosource-Invitrogen) to prevent unspecific binding. BBB-endothelial cells and PBMCs were incubated for 1 h at 4° C. with the primary unconjugated monoclonal mouse anti-Ninjurin-1 antibody (20 μg/ml, BD Biosciences), or with the Functional Grade Purified Mouse IgG2a Isotype Control (20 μg/ml, ebioscience, Inc., San Diego, Calif., USA). Cells were then incubated for 30 min at 4° C. with an allophycocyanin (APC)-conjugated goat anti-mouse Ig (2 μg/ml, BD Biosciences) to detect specific binding. Cells were then counter-stained for 30 min at 4° C. with mouse anti-human conjugated antibodies: Human Leukocyte Antigen (HLA)-ABC, Intracellular cell adhesion molecule (ICAM)-1, CD3, CD4, CD8, CD19, HLA-DR, CD14, CD83, CD123, CD209, CD11c or with corresponding isotype controls (all from BD Biosciences). To study the expression of Ninjurin-1 on murine immune cells, the mouse monoclonal anti-Ninjurin-1 antibody was biotinylated, to prevent unspecific binding of the secondary antibody. A buffer exchange was performed with a Slide-A-Lyzer® Dialysis Cassette (3.5-20K Cassettes, Thermo Scientific, Rockford, Ill., USA) to remove glycerol and bovine serum albumin (BSA) from the antibody solution using Melon™ Gel IgG Spin Purification Kit. Biotin was added using the EZ-Link® Micro NHS-PEO4-Biotinylation kit according to the manufacturer's instructions (Thermo Scientific). Murine peripheral blood or CNS mononuclear cells were incubated for 1 h at 4° C. with the primary biotinylated monoclonal mouse anti-Ninjurin-1 antibody (5 μg/ml, BD Biosciences), or with the Biotin-conjugated IgG2a, K isotype control (5 μg/ml, ebioscience). Cells were then incubated for 30 min at 4° C. with secondary antibody […]—APC (2 μg/ml, BD Biosciences). […] Cells were acquired on a BD LSR™ II Flow cytometer and analyzed using the BD FACSDiva™ software (BD Biosciences). […]

SCI mice = test: Spinal cord injury (SCI), contusion with Infinite Horizons impactor; type: in vivo, C57BL/6 mice
Protocol: Immunofluorescent stainings of human and mouse CNS material. Luxol Fast Blue (LFB) and H&E stainings (Wosik et al., 2007) were performed on human and mouse brain tissue specimens obtained from four MS patients (autopsy) and EAE/SCI animals. Sections showing acute demyelinating lesions and active perivascular mononuclear cell infiltration were selected (8 to 12 blocks per MS donor), and compared to normal-appearing white matter from the same donors (8 blocks per donor) and to non-neurological disease controls (3 donors; 9-11 blocks per donor). Mean age was 49±6 years and disease duration ranged from 3 to 23 years. The cause of death was pneumonia (2), urosepsis (1) and barbiturate intoxication (1). […] Fluorescence was visualized on a Leica™ DM6000 B epifluorescent microscope equipped with a DFC480 digital camera (Leica Microsystems, Wetzlar Germany) or on a Leica™ SP5 confocal microscope. Images were acquired using Openlab™ 4.0.4 (Improvision, Waltham, Mass.) and processed and analyzed with Adobe Photoshop™ CS2 (Adobe, Mountain View, Calif.). Numbers of CD11c+ DCs, F4/80+ macrophages and MHC II+ cells in spinal cord were quantified in pictures of 15 random fields of the spinal cord (two mice per treatment group). […]
Spinal cord injury. […] Locomotor recovery was evaluated in an open-field test using the Basso Mouse Scale (BMS) (Basso D. M. et al., (2006). J Neurotrauma. 23(5): 635-59). […]

[1] = tested on: human CD14+ monocytes migrating across human BBB-endothelial cells; test: In vitro model of the human BBB (Boyden chamber): CD14+ monocyte migration; type: cell-based; details: human Ninj26-37 peptide 0.4 mM on BBB-ECs 1 h before cells; 24 h migration; vs scramble peptide
Protocol: In vitro model of the BBB. BBB-ECs grown in primary cultures were used to generate an in vitro model of the human BBB, as published previously (Cayrol et al., Nature Immunol 9(2): 137-45 Epub 2007 Dec. 23). Human BBB-endothelial cells (25×10^3 cells/chamber) were grown in primary culture on 3 μm porous membrane (Becton Dickinson Labware, Franklin Lakes, N.J., USA), coated with 0.5% gelatin (Sigma), in endothelial cell culture media supplemented with 40% ACM, for 4 days to reach confluency. The BBB-endothelial cells were treated with 0.4 mM of scramble peptide (WRGNPGIRWAPH, SEQ ID NO: 12), 0.4 mM of human Ninj26-37 (PARWGWRHGPIN; SEQ ID NO: 5), 10 μg/ml of sheep IgG isotype control or 10 μg/ml of sheep anti-human Ninjurin-1 blocking Ab one hour prior to the addition of the leukocytes. Human ex vivo CD14^+ monocytes, or CD4^+, or CD8^+ lymphocytes were isolated, from consenting healthy donors, as described above. The leukocytes were added to the upper chamber (1×10^6 cells/chamber) and were allowed to migrate across human BBB-endothelial cells for 24 h. The cells that migrated through the BBB-endothelial cells, were recovered from the lower chamber and counted manually. All migration data shown represent at least 3 independent experiments performed in triplicate.

## PPRWGLRNRPIN (SEQ ID NO: 6) (Peptide corresponding to residues 26 to 37 of human Ninjurin-1) [mouse Ninj26-37]
EAE mice; Ninj26-37 200 μg i.p. twice daily day 3 to 23, vs control group
  demyelination (tissue damage) and immune cell infiltration in EAE spinal cord, Luxol fast blue-H&E: reduction in immune cell infiltration and demyelination
EAE mice; Ninj26-37 200 μg i.p. twice daily, 14 days post-immunization, vs control/scramble
  infiltrating MHC II+, F4/80+ and CD11c+ myeloid cells in EAE spinal cord, immunofluorescence and cell counts: reduction of infiltrating
EAE mice; mouse Ninj26-37 200 μg i.p. twice a day, day 3 to 23 post-immunization, vs PBS (FIG. 6A) or scramble peptide (FIG. 15)
  EAE neurological signs, symptoms and clinical scores: significant reduction of the neurological signs, symptoms and clinical scores
SCI mice; murine Ninj26-37 200 μg i.p. b.i.d. day 1 to 7 after injury, day 7 post-injury, vs control peptide
  infiltration of Iba1+ and CD11c+ myeloid cells in the spinal cord of SCI animals: reduced
SCI mice; murine Ninj26-37 200 μg i.p. twice a day, vs control animals
  clinical scores (Basso mouse scale, BMS) after SCI: reduced

## PARWGWRHGPIN (SEQ ID NO: 5) (listed as Homo sapiens) [human Ninj26-37]
[1]
  migration of CD14+ monocytes across human BBB-endothelial cells: significantly restricts the migration
